Measured values from PMC8796707 (ACS chemical biology, 2020).
Read-outs that look alike come from different tables or passages of the source.

Columns and labels:
[1] = tested on: HEK293 cells expressing HT-TM-mCer3 (HaloTag); assay type: cell-based; details: 500 nM dye, washed 6×, then 1 μM dL5**
[2] = tested on: HEK293 cells expressing dL5**-TM coplated with HT-TM-mCer3 cells
[3] = tested on: HaloTag (HT) protein fusion; experiment: Binding to purified HaloTag protein fusion, denaturing SDS-PAGE
[4] = tested on: HEK293 cells expressing dK-TM coplated with HT-TM-mCer3 cells; details: 10 nM DAPA dye
[5] = tested on: dK (dL5(E52K)); assay type: binding
[6] = tested on: HEK293 cells expressing NLS-dL5**; experiment: Cell permeability testing: labeling of nuclear localized FAP; assay type: cell-based; details: flow cytometry, 100 nM dye, normalized to MG-nBu
[7] = tested on: FRB-HT/dK-FKBP; experiment: Rapamycin chemical inducer of dimerization; assay type: biochemical; details: 100 nM dK fusion, 200 nM HT fusion, 250 nM rapamycin, 10 nM DAPA
[8] = tested on: dL5**; experiment: Binding kinetics and affinity of dye to purified FAP; details: SD, N = 4
[9] = tested on: dK-FRB/FKBP-HT; experiment: Rapamycin chemical inducer of dimerization; assay type: biochemical; details: 100 nM dK fusion, 200 nM HT fusion, 250 nM rapamycin, 10 nM DAPA
Sequence of dK-FRB/FKBP-HT (P42345 2021-2113 limits assumed): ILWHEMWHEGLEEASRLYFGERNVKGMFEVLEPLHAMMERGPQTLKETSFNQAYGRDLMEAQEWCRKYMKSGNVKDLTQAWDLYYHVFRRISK
Sequence of dK-FRB/FKBP-HT (P62942 2-108 limits assumed, further chain): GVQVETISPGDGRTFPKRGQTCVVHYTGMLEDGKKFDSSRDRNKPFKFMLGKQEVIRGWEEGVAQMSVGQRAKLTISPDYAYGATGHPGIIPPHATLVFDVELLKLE

Sequence of FRB-HT/dK-FKBP (P42345 2012-2144 limits assumed): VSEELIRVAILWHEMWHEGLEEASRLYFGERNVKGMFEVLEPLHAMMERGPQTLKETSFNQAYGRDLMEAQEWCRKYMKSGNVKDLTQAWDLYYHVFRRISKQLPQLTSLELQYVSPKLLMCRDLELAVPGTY
Sequence of FRB-HT/dK-FKBP (P62942 2-108 limits assumed, further chain): as the sequence (P62942 2-108 limits assumed, further chain) above

MG-PEG3500-HexCl [DAPA]
labeling of HaloTag expressing cells [1]: specifically labeled mCer3 positive cells
ratio between contact and noncontact signal ([2]; 100 nM DAPA dye): 1.9
ratio between contact and noncontact signal ([2]; DAPA dye between 0.5 nM and 10 nM): > 3.8
binding to purified HaloTag protein fusion [3]: irreversibly bind
signal increase at the contact site versus the noncontact site [4]: 40 fold
off rate, koff, dK ([5]; SD, N = 4): 53 ± 2 ×10^−4 s^−1
on rate, kon, dK ([5]; SD, N = 4): 0.39 ± 0.03 ×10^6 M^−1 s^−1
difference in FAP/DAPA KD between dL5** and dK ([5]; dK versus dL5**): ~ 500 fold
Kd ([5]; read-out: dissociation constant, KD, dK, KD = koff/kon, SD, N = 4): 13.7 ± 0.5 nM
NLS-dL5** labeling signal relative to MG-nBu signal [6]: 5%
increase in FAP–DAPA signal for rapamycin induced dimerization [7]: 50%
off rate, koff, dL5** [8]: 1.23 ± 0.06 ×10^−4 s^−1
on rate, kon, dL5** [8]: 3.2 ± 0.2 ×10^6 M^−1 s^−1
increase in FAP–DAPA signal for rapamycin induced dimerization [9]: 100%
